Results published in patent US20240300980A1, “HETEROCYCLIC COMPOUNDS AS KRAS INHIBITOR, AND PREPARATION THEREFOR AND USE THEREOF IN TREATMENT” (SHANGHAI KECHOW PHARMA, INC., priority 2021, published 2024).
pIC50: −log10 of the molar value.

Tested on: AGS cells (KRAS^G12D)
Assay: Detection of cell proliferation in vitro by MTT/MTS method (cell activity experiment)
Assay type: cell-based
Details: AGS cells; MTT/MTS; 3 days of drug treatment; read-out: AGS IC50
Outline: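 KRAS G12D AGS cells seeded at 1000 per well, compound added 24 h later, 0.5% final DMSO. Viability read after 3 days of treatment by MTT (solubilised in DMSO) or MTS, 4 h, absorbance 490 nm. IC50 from dose–response curves versus DMSO control.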

SMILES	pIC50
Oc1cc(-c2ccc3c(N4C[C@H]5CC[C@@H](C4)[C@@H]5F)nc(OC[C@@]45CCCN4C[C@H](F)C5)nc3c2F)c2c(F)c(F)ccc2c1 [Example 126, 5,6-difluoro-4-(8-fluoro-4-((1R,5S,8R)-8-fluoro-3-azabicyclo [3.2.1]octan-3-yl)-2-(((2R,7aS)-2-fluorotetrahydro-1H-pyrrolizin-7a(5H)-yl)methoxy)quinazolin-7-yl)naphthalen-2-ol]	< 5.60
C#Cc1c(F)ccc2cc(O)cc(-c3ccc4c(N5C[C@H]6CC[C@@H](C5)[C@@H]6C#N)nc(OC[C@@]56CCCN5C[C@H](F)C6)nc4c3F)c12 [Example 127, (1R,5S,8S)-3-(7-(8-ethynyl-7-fluoro-3-hydroxynaphthalen-1-yl)-8-fluoro-2-(((2R,7aS)-2-fluorotetrahydro-1H-pyrrolizin-7a(5H)-yl)methoxy)quinazolin-4-yl)-3-azabicyclo [3.2.1]octane-8-carbonitrile]	< 5.60

Same assay, conditions: Homo sapiens, AGS, 72 h, AGS cells; MTT/MTS; 3 days of drug treatment; read-out: AGS IC50

SMILES	pIC50
CCC1CCc2cc(O)cc(-c3c(F)c4nc(OC[C@@]56CCCN5C[C@H](F)C6)nc(N5C[C@H]6CC[C@@H](C5)N6)c4c4nccn34)c21 (stereo partly drawn) [Example 415, 7-(10-((1R,5S)-3,8-diazabicyclo[3.2.1]octan-3-yl)-6-fluoro-8-(((2R,7aS)-2-fluorotetrahydro-1H-pyrrolizin-7a(5H)-yl)methoxy)imidazo[1′,2′:1,2]pyrido[4,3-d]pyrimidin-5-yl)-1-ethyl-2,3-dihydro-1H-inden-5-ol]	7.22
C#Cc1c(F)ccc2cc(O)cc(-c3ncc4c(-c5ccn(C(=O)CO)c5)nc(OC[C@@]56CCCN5C[C@H](F)C6)nc4c3F)c12 [Example 86, 1-(3-(7-(8-ethynyl-7-fluoro-3-hydroxynaphthalen-1-yl)-8-fluoro-2-(((2R, 7aS)-2-fluorotetrahydro-1H-pyrrolizin-7a(5H)-yl)methoxy)pyrido[4,3-d]pyrimidin-4-yl)-1H-pyrrol-1-yl)-2-hydroxyethan-1-one]	< 5.00
CCC1CCc2cc(O)cc(C3=C(F)c4nc(OC[C@@]56CCCN5C[C@H](F)C6)nc(N5C[C@H]6CC[C@@H](C5)N6)c4C4=NCCN43)c21 (stereo partly drawn) [Example 408, 7-(10-((1R,5S)-3,8-diazabicyclo[3.2.1]octan-3-yl)-6-fluoro-8-(((2R,7aS)-2-fluorotetrahydro-1H-pyrrolizin-7a(5H)-yl)methoxy)-2,3-dihydroimidazo[1′,2′:1,2]pyrido[4,3-d]pyrimidin-5-yl)-1-ethyl-2,3-dihydro-1H-inden-5-ol]	7.39
CC1CCc2cc(O)cc(-c3ccc4c(N5C[C@H]6CC[C@@H](C5)N6)nc(OC[C@@]56CCCN5C[C@H](F)C6)nc4c3F)c21 (stereo partly drawn) [Example 286, 7-(4-((1R,5S)-3,8-diazabicyclo[3.2.1]octan-3-yl)-8-fluoro-2-(((2R,7aS)-2-fluorotetrahydro-1H-pyrrolizin-7a(5H)-yl)methoxy)quinazolin-7-yl)-1-methyl-2,3-dihydro-1H-inden-5-ol]	7.54
Cc1cc(N)nc(-c2ncc3c(N4C[C@H]5CC[C@@H](C4)N5)nc(OCC4(CN5CCCC5)CC4)nc3c2F)c1C1CC1 [Example 9, 6-(4-((1R,5S)-3,8-diazabicyclo[3.2.1]octan-3-yl)-8-fluoro-2-((1-(pyrrolidin-1-ylmethyl)cyclopropyl)methoxy)pyrido[4,3-d]pyrimidin-7-yl)-5-cyclopropyl-4-methylpyridin-2-amine]	< 6.00
CCc1c(F)ccc2cc(O)cc(-c3ncc4c(N5C[C@H]6CC[C@@H](C5)N6)c(C(F)(F)F)c(OC[C@@]56CCCN5C[C@H](F)C6)nc4c3F)c12 [Example 197, 4-(4-((1R,5S)-3,8-diazabicyclo[3.2.1]octan-3-yl)-8-fluoro-2-(((2R,7aS)-2-fluorotetrahydro-1H-pyrrolizin-7a(5H)-yl)methoxy)-3-(trifluoromethyl)-1,6-naphthyridin-7-yl)-5-ethyl-6-fluoronaphthalen-2-ol]	< 5.60
C#Cc1c(F)ccc2cc(O)cc(-c3cc4nc(OC[C@@]56CCCN5C[C@H](F)C6)c(C#N)c(N5C[C@H]6CC[C@@H](C5)N6)c4cn3)c12 [Example 188, 4-((1R,5S)-3,8-diazabicyclo[3.2.1]octan-3-yl)-7-(8-ethynyl-7-fluoro-3-hydroxynaphthalen-1-yl)-2-(((2R,7aS)-2-fluorotetrahydro-1H-pyrrolizin-7a(5H)-yl)methoxy)-1,6-naphthyridine-3-carbonitrile]	5.81
C#Cc1c(F)ccc2cc(O)cc(-c3ncc4c(N5CCC6(CCCS6)CC5)nc(OC[C@@]56CCCN5C[C@H](F)C6)nc4c3F)c12 [Example 49, 5-ethynyl-6-fluoro-4-(8-fluoro-2-(((2R, 7aS)-2-fluorotetrahydro-1H-pyrrolizin-7a(5H)-yl)methoxy)-4-(1-thia-8-azaspiro[4.5]decan-8-yl)pyrido[4,3-d]pyrimidin-7-yl)naphthalen-2-ol]	< 5.00
C#Cc1cccc2cc(O)cc(-c3ncc4c(N5CC6CCC(C5)C6O)nc(OC[C@@]56CCCN5C[C@H](F)C6)nc4c3F)c12 (stereo partly drawn) [Example 61, (1R,5S,8R)-3-(7-(8-ethynyl-3-hydroxynaphthalen-1-yl)-8-fluoro-2-(((2R, 7aS)-2-fluorotetrahydro-1H-pyrrolizin-7a(5H)-yl)methoxy)pyrido[4,3-d]pyrimidin-4-yl)-3-azabicyclo[3.2.1] octan-8-ol]	< 5.60
CC1Cc2cc(O)cc(-c3ncc4c(N5C[C@H]6CC[C@@H](C5)N6)nc(OC[C@@]56CCCN5C[C@H](F)C6)nc4c3F)c2C1 (stereo partly drawn) [Example 266, 7-(4-((1R,5S)-3,8-diazabicyclo[3.2.1]octan-3-yl)-8-fluoro-2-(((2R,7aS)-2-fluorotetrahydro-1H-pyrrolizin-7a(5H)-yl)methoxy)pyrido[4,3-d]pyrimidin-7-yl)-2-methyl-2,3-dihydro-1H-inden-5-ol]	7.28
Cc1nccc2cc(O)cc(-c3ncc4c(N5C[C@H]6CC[C@@H](C5)N6)nc(OC[C@@]56CCCN5C[C@H](F)C6)nc4c3F)c12 [Example 343, 8-(4-((1R,5S)-3,8-diazabicyclo[3.2.1]octan-3-yl)-8-fluoro-2-(((2R,7aS)-2-fluorotetrahydro-1H-pyrrolizin-7a(5H)-yl)methoxy)pyrido[4,3-d]pyrimidin-7-yl)-1-methylisoquinolin-6-ol]	7.77
C#Cc1c(F)ccc2cc(O)cc(-c3ncc4c(N5CC6CCC(C5)C6S(=O)(=O)C(F)(F)F)nc(OC[C@@]56CCCN5C[C@H](F)C6)nc4c3F)c12 (stereo partly drawn) [Example 67, 5-ethynyl-6-fluoro-4-(8-fluoro-2-(((2R,7aS)-2-fluorotetrahydro-1H-pyrrolizin-7a(5H)-yl)methoxy)-4-((1R,5S, 8R)-8-((trifluoromethyl)sulfonyl)-3-azabicyclo[3.2.1]octan-3-yl)pyrido[4,3-d]pyrimidin-7-yl)naphthalen-2-ol]	< 5.00
CCC1CCCc2cc(O)cc(-c3cc4nc(OC[C@@]56CCCN5C[C@H](F)C6)nc(N5C[C@H]6CC[C@@H](C5)N6)c4c4occc34)c21 (stereo partly drawn) [Example 388, 4-(9-((1R,5S)-3,8-diazabicyclo[3.2.1]octan-3-yl)-7-(((2R,7aS)-2-fluorotetrahydro-1H-pyrrolizin-7a(5H)-yl)methoxy)furo[2,3-f]quinazolin-4-yl)-5-ethyl-5,6,7,8-tetrahydronaphthalen-2-ol]	6.31
C#Cc1c(F)ccc2cc(O)cc(-c3ccc4c(N5CCC6(CCCS6(=O)=O)CC5)nc(OC[C@@]56CCCN5C[C@H](F)C6)nc4c3F)c12 [Example 110, 8-(7-(8-ethynyl-7-fluoro-3-hydroxynaphthalen-1-yl)-8-fluoro-2-(((2R, 7aS)-2-fluorotetrahydro-1H-pyrrolizin-7a(5H)-yl)methoxy)quinazolin-4-yl)-1-thia-8-azaspiro [4.5]decane 1,1-dioxide]	< 5.60
CCC1C(=O)Cc2cc(O)cc(-c3ncc4c(N5C[C@H]6CC[C@@H](C5)N6)nc(OC[C@@]56CCCN5C[C@H](F)C6)nc4c3F)c21 (stereo partly drawn) [Example 263, 7-(4-((1R,5S)-3,8-diazabicyclo[3.2.1]octan-3-yl)-8-fluoro-2-(((2R,7aS)-2-fluorotetrahydro-1H-pyrrolizin-7a(5H)-yl)methoxy)pyrido[4,3-d]pyrimidin-7-yl)-1-ethyl-5-hydroxy-1,3-dihydro-2H-inden-2-one]	< 5.00
